Columns and labels:
Venturia inaequalis = test: Activity against scab on apple leaves caused by Venturia inaequalis, protective application; assay type: in vivo; conditions: inoculated 12 days after treatment
Procedure: (§1) The active compounds, separately or jointly, were prepared as a stock solution comprising 0.25% by weight of active compound in acetone or DMSO. 1% by weight of the emulsifier Uniperol® EL (wetting agent having emulsifying and dispersant action based on ethoxylated alkylphenols) was added to this solution, and the mixture was diluted with water to the desired concentration.
Leaves of apples were sprayed to runoff point with an aqueous suspension having the concentration of active compound stated below. After 12 days, the treated plants were inoculated with an aqueous spore suspension of Venturia inaequalis. The apples were then initially placed in a water-vapor-saturated chamber at 24° C. for 48 hours and then in a greenhouse at temperatures between 20 and 24° C. for 20 days. The extent of the development of the infection on the upper sides of the leaves was then determined visually.
The visually determined percentages of infected leaf areas were converted into efficacies in % of the untreated control:
The efficacy (E) is calculated as follows using Abbot's formula: E=(1−α/β)[…] α corresponds to the fungal infection of the treated plants in % and β corresponds to the fungal infection of the untreated (control) plants in % An efficacy of 0 means that the infection level of the treated plants corresponds to that of the untreated control plants; an efficacy of 100 means that the treated plants were not infected.
The expected efficacies of mixtures of active compounds were determined using Colby's formula (Colby, S. R. “Calculating synergistic and antagonistic responses of herbicide Combinations”, Weeds, 15, 20-22, 1967) and compared with the observed efficacies.
Colby's formula: E=x+y−x·y/100
E expected efficacy, expressed in % of the untreated control, when using the mixture of the active compounds A and B at the concentrations a and b x efficacy, expressed in % of the untreated control, when using the active compound A at the concentration a y efficacy, expressed in % of the untreated control, when using the active compound B at the concentration b

Plasmopara viticola = test: Activity against peronospora of grapevines caused by Plasmopara viticola, 9 day protective application; assay type: in vivo; conditions: potted vines, inoculated 9 days after treatment
Procedure: as §1
Leaves of potted vines were sprayed to runoff point with an aqueous suspension having the concentration of active compound stated below. To be able to assess the persistency of the substances, the plants were, after the spray coating had dried on, placed in a greenhouse for 9 days. Only then were the leaves inoculated with an aqueous zoospore suspension of Plasmopara viticola. The grapevines were then initially placed in a water-vapor-saturated chamber at 24° C. for 48 hours and then in a greenhouse at temperatures between 20 and 30° C. for 5 days. After this time, the plants were again placed in a humid chamber for 16 hours, to promote sporangiophore eruption. The extent of the development of the infection on the undersides of the leaves was then determined visually.
(§2) Evaluation was carried out analogously to example 1.

Pyrenophora teres = test: Activity against net blotch of barley caused by Pyrenophora teres, 1 day protective application; assay type: in vivo, Pyrenophora [syn. Drechslera] teres; conditions: barley seedlings cultivar Hanna, inoculated 24 hours after treatment
Procedure: as §1
Leaves of potted barley seedlings of the cultivar “Hanna” were sprayed to runoff point with an aqueous suspension having the concentration of active compound stated below. 24 hours after the spray coating had dried on, the test plants were inoculated with an aqueous spore suspension of Pyrenophora [syn. Drechslera] teres, the net blotch pathogen. The test plants were then placed in a greenhouse at temperatures between 20 and 24° C. and at 95 to 100% relative atmospheric humidity. After 6 days, the extent of the development of the disease was determined visually in % infection of the entire leaf area.
as §2

SMILES	Efficacy in % of the untreated control (Venturia inaequalis; 50 ppm in the spray liquor) [%]	Efficacy in % of the untreated control (Plasmopara viticola; 50 ppm in the spray liquor) [%]	Efficacy in % of the untreated control (Pyrenophora teres; 3.1 ppm in the spray liquor) [%]	also measured
CC1CCN(c2c(-c3c(F)cc(F)cc3F)c(Cl)nc3ncnn23)CC1 [I-1, 5-chloro-7-(4-methylpiperidin-1-yl)-6-(2,4,6-trifluorophenyl)-[1,2,4]triazolo[1,5-a]pyrimidine]	48	25	66	Efficacy in % of the untreated control (Venturia inaequalis; 25 ppm in the spray liquor): 18%; Efficacy in % of the untreated control (Plasmopara viticola; 25 ppm in the spray liquor): 13%
C[N+](C)(C)CCCl [chlormequat chloride (IIc.1), chlormequat chloride]	–	–	0	Efficacy in % of the untreated control (Pyrenophora teres; 6.3 ppm in the spray liquor): 0%
CC(=NNC(=O)Nc1cc(F)cc(F)c1)c1ncccc1C(=O)O [diflufenzopyr (III.1), 2-{1-[4-(3,5-difluorophenyl)semicarbazono]ethyl}nicotinic acid]	–	–	–	Efficacy in % of the untreated control (Pyrenophora teres; 0.031 ppm in the spray liquor): 0%
CCC(=O)C1=C([O-])CC(C(=O)[O-])CC1=O.[Ca+2] (stereo not drawn) [prohexadione-Ca (IIa.1), prohexadione-Ca]	4	0	–	Efficacy in % of the untreated control (Venturia inaequalis; 100 ppm in the spray liquor): 29%; Efficacy in % of the untreated control (Plasmopara viticola; 100 ppm in the spray liquor): 0%
